# Reference: patent US20060115458A1, “Material for repairing biological tissues, product for repairing biological tissues, and method of manufacturing material for repairing biological tissues” (OLYMPUS CORPORATION, priority 2004, published 2006)
# Assays:
# [1] = test system: normal human osteoblast NHOst; test: Proliferation rate of osteoblasts cultured with metal salts (TetraColor ONE); type: cell-based; conditions: as concentration became higher; 2 weeks culture; control group = 100%; FIG. 1
# Description: (§1) As a medium, α-MEM medium containing β-sodium glycerophosphate and fetal calf serum was used.
# (§2) The cell culturing method was such that about 1×10^4 osteoblasts were seeded in each well in a collagen type I coated 24 well microplate. Then after 24 hours the product was replaced with 1 ml of medium containing a prescribed concentration of metal salts, after which it was further replaced with a medium containing the same concentration of metal salts three times per week, and the culturing was performed for 2 weeks.
# The proliferation rate was measured as follows. 1 ml of medium containing 20 μl/ml of living cell measuring reagent, TetraColor ONE (Seikagaku Corporation) was added into each well. After 2 hours of culturing, the absorbency at 450 nm (control wavelength was 600 nm) was measured. The proliferation rate of the respective experimental groups was obtained assuming that the absorbancy of the control group was 100%.
# [2] = test system: normal human osteoblast NHOst; test: Differentiation rate of osteoblasts cultured with metal salts (calcium content per well); type: cell-based; conditions: as concentration became higher; 2 weeks culture; calcium content of control group = 100%; FIG. 2
# Description: as §1, §2
# The differentiation rate was measured as follows. 1 ml of 0.1N hydrochloric acid was added into each well and left at room temperature for 15 hours to obtain the hydrochloric acid extract of each well. Using calcium C-Test Wako (Wako Pure Chemical Industries, Ltd.), 10 μl of hydrochloric acid extract was added with 1 ml of 0.88 M monoethanolamine buffer (pH 11.0), then 100 μl of 0.63 mM ortho-cresolphthalein complexone and 100 μl of 69 mM 8-quinolinol. After 15 minutes of reaction at room temperature, the absorbancy at 570 nm was measured to determine the calcium content per well. The differentiation rate of the respective experimental groups was obtained assuming that the calcium content of the control group was 100%.
structure (smiles),measurement,setting,value
[Cl][Nb]([Cl])([Cl])([Cl])[Cl] [niobium pentachloride],proliferation rate of osteoblasts,[1],increased the proliferation rate
same,differentiation rate of osteoblasts,[2],increased the differentiation rate
